Common to all, as to format: cell-based, rat
The subject of test [1] is 832/13 cells. The test is described as follows: Glucose-stimulated insulin secretion (GSIS) in 832/13 cells, insulin ELISA. As to conditions: for decrease in GSIS: 1 ng/ml IL-1β. The procedure:
832/13 cells were grown in 12-well plates and treated as indicated. Glucose-stimulated insulin secretion (GSIS) assays were performed as described previously (29). Insulin secretion by cell lines into the media was measured using either the High Range Rat Insulin ELISA kit (Mercodia, Uppsala, Sweden) or by rat islets using the insulin radioimmunoassay (Siemens, Malvern, Pa.) according to the company directions. In addition, cells were lysed using M-PER lysis reagent (Thermo Fisher Scientific) to quantify total intracellular protein content via BCA assay (Thermo Fisher Scientific). Insulin secretion data were normalized to total protein to account for any differences in cell number between treatment groups. Incorporation of tritiated thymidine into DNA as a cellular index of proliferation was carried out as described (45).
Background: An ELISA detects its analyte on a solid surface through an enzyme-linked reagent.

The test system of test [2] is CCL2. The test can be described thus: CCL2 secretion into media of 832/13 cells, ELISA. The procedure: (§1) 832/13 cells were grown in 12-well plates and treated as indicated. RPMI was supplemented with 0.3% BSA, and media were collected at the indicated time points. In addition, the cells were lysed using M-PER lysis reagent (Thermo Fisher Scientific) to quantify total intracellular protein content. CCL2 and CCL20 secretion into the media was measured by CCL2 Quantikine ELISA kit (R & D Systems, Minneapolis, Minn.) and CCL20 DuoSet ELISA kit (R & D Systems) according to the manufacturer's protocol. ELISA data were normalized to total protein to account for any differences in cell number between treatment groups.

In test [3] the test system is CCL20. The test is described as follows: CCL20 secretion into media of 832/13 cells, ELISA. As to conditions: glucose 2, 4, 8 or 16 mM; IL-1β 6 h. Here is the method:
as §1

In test [4] the test system is iNOS. The test can be described thus: iNOS mRNA (RT-PCR) and protein (immunoblot) abundance in 832/13 cells. The conditions noted are these: 832/13 cells exposed to IL-1β. An excerpt:
RNA isolation from cell lines and rat islets, cDNA synthesis, and analysis of real-time RT-PCR data has been described in detail previously (12). For all transcripts studied, the relative mRNA abundance was normalized to that of the housekeeping gene ribosomal S9. Primers used to detect transcript levels of ribosomal S9, iNOS, IL-1, and Nkx6.1 were designed using Primer3Plus software and are available upon request.
Cell lysis and extraction of cytoplasmic and nuclear protein fractions was performed using the NE-PER kit (Thermo Fisher Scientific) according to the manufacturer's directions. The protein concentration of the lysate was determined using the bicinchoninic acid assay (Thermo Fisher Scientific), using BSA as the standard. SDS-PAGE, transfer to polyvi-nylidene difluoride membranes, membrane blocking before antibody incubation, and downstream subsequent detection using a ChemiDoc imaging system (Bio-Rad) have been described previously (16). Antibodies detecting β-actin or tubulin were used as loading controls. Antibodies used were from the following sources: iNOS (Santa Cruz Biotechnology), (3-actin (Cell Signaling Technology), Ikα: (Santa Cruz Biotechnology), tubulin (Cell Signaling Technology), and Pdx-1 (Cell Signaling Technology). The antibody recognizing Nkx6.1 has been described (34). Immunoblot images were quantified using Image Lab software (Bio-Rad).
On the technique in general: A western blot detects proteins with antibodies after separation by electrophoresis.

In test [5] the test system is 832/13 cells. The test can be described thus: Nitrite accumulation in culture media, Griess assay. As to conditions: IL-1β. The procedure:
(§2) Nitrite in the cell culture media was measured as an index of NO production using the Griess assay kit (Promega, Madison, Wis.), whereas cellular reduction of the 3-(4,5-dimethylthiazol-2-yl)-5-(3-carboxymethoxyphenyl)-2-(4-sulfophe-nyl)-2H-tetrazohum, inner salt (MTS) dye was determined using the MTS 1 solution kit (Promega) according to the manufacturer's protocol.

Test [6] concerns 832/13 cells. The test can be described thus: Nitric oxide by EPR spectroscopy with (MGD)2Fe2+ spin trap. As to conditions: 1 ng/ml IL-1β 18 h. Here is the method:
The spin trap Af-methyl-d-glucamine dithiocarbamate-iron complex [(MGD)2-Fe^2+] was prepared fresh in each experiment by making stock solutions of 500 mM MGD and 100 mM Fe^2+ (from FeS04.7 H20) in ultrapure water under anaerobic conditions. A final concentration of 25 mM MGD and 5 mM Fe^2+ was introduced onto cells in culture using serum-free media with a 30-min incubation period. Supernatants were then collected for the measurements of the (MGD)2-iron-NO complex. All electron paramagnetic resonance (EPR) measurements were carried out in a quartz flat cell at room temperature. Samples were transferred directly into the flat cell, which was then placed into the cavity of a Bruker EMX Plus spectroscope. Typical instrumental conditions were as follows: 20 mW of microwave power, 5.0-G modulation amplitude, 1×10^5 gain, 0.163-s time constant, and 80-G scan range. Quantitation was carried out by measuring and comparing the first peak heights on the spectra.

Test [7] relates to 832/13 cells. The test is described as follows: MTS dye reduction assay. The conditions noted are these: 1 ng/ml IL-1β, 18 h. Here is the method:
as §2
(In general: Formazan colour is commonly taken as a measure of viable cells.)

Test [8] deals with voltage-gated Ca^2+ channels. The test is described as follows: Whole cell voltage clamp recordings. As to conditions: n=25; for cell size (whole cell capacitance) vs control: IL-1β pretreatment. From the text: Cell culture dishes were mounted on the stage of an Olympus K70 inverted microscope. A reference Ag/AgCl pellet served to ground the bath. Patch electrodes were pulled from thick-walled borosilicate glass with a filament (outer diameter 1.5 mm; inner diameter: 0.86 mm; Sutter Instruments, Novato, Calif.) using a Haming-Brown Micropipette Puller (Sutter Instruments). Electrode resistance values ranged from 4 to 7 Mfl. Ruptured patch, whole cell voltage clamp recordings were made using an Axopatch ID-patch clamp amplifier (Molecular Devices, Sunnyvale, Calif.). Data were recorded using pClamp 10.0 software (Molecular Devices). Unless otherwise indicated, all reagents were purchased from Sigma-Aldrich (St. Louis, Mo.). External solutions consisted of the following (in mM): 116.7 NaCl, 20.0 TEAC1, 3.0 CaCl2, 0.4 MgCl2, 4.0 glucose, and 10.0 HEPES. Voltage clamp experiments were performed in the ruptured patch configuration using the following internal solution (in mM): 100.00 CsAc, 10.0 CsCl, 2.0 MgCl2, 0.1 CaCl2, and 10.0 HEPES. Also included was an ATP regeneration system to preserve Ca^2+ currents [3.0 ATP (dipotassium), 1.0 ATP (disodium), 20.0 phosphocreatine, 2.0 GTP, and 50 U/ml creatine phos-phokinase]. Cesium was used as a substitute for K^+ to minimize currents through voltage-gated K^+ channels. Tetrodotoxin (300 nM; Alomone Laboratories, Jerusalem, Israel) was included in the external solution to block voltage-gated Na^+ currents. The liquid junction potential error for these solutions was estimated to be −13 mV (pClamp). Solutions were adjusted to pH 7.4 with NaOH for external solutions and with CsOH for internal solutions. A pressurized gravity flow perfusion system (1.5-2 mi/min) was used to deliver the external solutions (AutoMate Scientific, Berkeley, Calif.).

“And” between values parts separate entries of the source, which are not always exact repeats. Equal values may be shown once. “Also recorded” adds a separate entry of the source.

Take “IL-1β: proinflammatory cytokine purchased from Thermo Fisher Scientific, used at 1 ng/ml”: the “decrease in GSIS” value in test [1] (6 h) was 40% and 36%; in test [1] (12 h), 59%. In test [1] (IL-1β), the “time by which insulin secretion began to decrease” value is on record as at most 6 h. For the same substance, the “diminution in GSIS” value in test [1] (IL-1β, associated with 13-fold increase in nitrite, time not given) came out at 54%. The “expression and secretion of CCL2 in response to IL-1β” value in test [2] (832/13 cells, 1 ng/ml IL-1β) is on record as “markedly elevated; also recorded: strongly induced”. Moreover, the “time to chemokine secretion after cellular exposure” value in test [2] (IL-1β) fell in the range of 3 to 6 h. Also, the “IL-1β-induced secretion of CCL2 over a range of glucose concentrations” value in test [2] (glucose 2, 4, 8 or 16 mM, IL-1β 6 h) is on record as “not different”. Besides, the “IL-1β-induced secretion of CCL20 over a range of glucose concentrations” value in test [3] is “not different”. In addition, the “iNOS expression (transcript and protein)” value in test [4] is given as “rapidly induced; also recorded: accumulates; also recorded: robust iNOS abundance”. In addition, the “increase in nitrite accrual” value in test [5] (6 h) came out at 5.5 fold. This substance also displayed an increase in nitrite in test [5] (time not given, associated with 54% diminution in GSIS) of 13 fold. In test [6], the “nitric oxide production in response to IL-1β” value is “robust production of nitric oxide”. In addition, the “decrease in reduction of the MTS dye” value in test [7] is 38%. In addition, the “cell size (whole cell capacitance) vs control” value in test [8] was “no effect on cell size”; in test [8] (listed as IL-I1β), “not significantly different”. Further, the “voltage-gated Ca^2+ current density vs control” value in test [8] (IL-1β-treated 832/13 cells, step to −3 mV) is “not significantly different; also recorded: No significant difference”.
